Data published in PMC5974779, “Prediction of Drug-Induced Hepatotoxicity Using Long-Term Stable Primary Hepatic 3D Spheroid Cultures in Chemically Defined Conditions” (Toxicological Sciences, 2018).

Tested on: primary human hepatocytes (PHH) 3D spheroids
Conditions: not given

SMILES | Chemically defined spheroids (this study) 20x | hepatotoxicity evaluation in CD-spheroids
NNCCc1ccccc1 [Phenelzine] | Negative | –
CC(C)OC(=O)C(C)(C)Oc1ccc(C(=O)c2ccc(Cl)cc2)cc1 [Fenofibrate] | Positive | –
CCCN(CCC)C(=O)Cc1c(-c2ccc(Cl)cc2)nc2ccc(Cl)cn12 [Alpidem] | Positive | –
CN1Cc2c(N)cccc2C(c2ccccc2)C1 (centres unmarked) [Nomifensine] | Positive | –
OC(Cn1cncn1)(Cn1cncn1)c1ccc(F)cc1F [Fluconazole] | Negative | –
CC(C)NNC(=O)c1ccncc1 [Iproniazid] | Negative | predicted to be DILI negative
O=C(c1ccccc1)c1ccc2n1CCC2C(=O)O (centres unmarked) [Ketorolac] | Positive | –
CN(C)/N=N/c1[nH]cnc1C(N)=O [Dacarbazine] | Positive | –
CCN(CC)Cc1cc(Nc2ccnc3cc(Cl)ccc23)ccc1O [Amodiaquine] | Positive | –

Same assay, conditions: human, 14 days

SMILES | hepatotoxicity evaluation in CD-spheroids
CCN(CC)Cc1cc(Nc2ccnc3cc(Cl)ccc23)ccc1O [Amodiaquine] | highly toxic at 5× and 20× of therapeutic serum levels

Tested on: clinical DILI in man
Conditions: DILI classification score; ref Guo et al. (2005); cited from earlier work

SMILES | Guo et al. (2005)
O=C(c1ccccc1)c1ccc2n1CCC2C(=O)O (centres unmarked) [Ketorolac] | 2

Same assay, conditions: DILI classification score; ref Suzuki et al. (2010); cited from earlier work

SMILES | Suzuki et al. (2010)
CCCN(CCC)C(=O)Cc1c(-c2ccc(Cl)cc2)nc2ccc(Cl)cn12 [Alpidem] | 3
CN1Cc2c(N)cccc2C(c2ccccc2)C1 (centres unmarked) [Nomifensine] | 3
CC(C)NNC(=O)c1ccncc1 [Iproniazid] | 3
O=C(c1ccccc1)c1ccc2n1CCC2C(=O)O (centres unmarked) [Ketorolac] | 1

Same assay, conditions: FDA drug labeling DILI concern; ref Chen et al., 2011; cited from earlier work

SMILES | FDA (Severity)
CCCN(CCC)C(=O)Cc1c(-c2ccc(Cl)cc2)nc2ccc(Cl)cn12 [Alpidem] | most DILI concern
CN1Cc2c(N)cccc2C(c2ccccc2)C1 (centres unmarked) [Nomifensine] | most DILI concern
CC(C)NNC(=O)c1ccncc1 [Iproniazid] | most DILI concern
O=C(c1ccccc1)c1ccc2n1CCC2C(=O)O (centres unmarked) [Ketorolac] | less DILI concern

Same assay, conditions: FDA drug labeling DILI score; ref Chen et al., 2011; cited from earlier work

SMILES | FDA (0-8)
CCCN(CCC)C(=O)Cc1c(-c2ccc(Cl)cc2)nc2ccc(Cl)cn12 [Alpidem] | Withdrawn
CN1Cc2c(N)cccc2C(c2ccccc2)C1 (centres unmarked) [Nomifensine] | Withdrawn
CC(C)NNC(=O)c1ccncc1 [Iproniazid] | Withdrawn
O=C(c1ccccc1)c1ccc2n1CCC2C(=O)O (centres unmarked) [Ketorolac] | 3

Same assay, conditions: clinical DILI classification in man (POS/NEG); cited from earlier work

SMILES | DILI in vivo
CCCN(CCC)C(=O)Cc1c(-c2ccc(Cl)cc2)nc2ccc(Cl)cn12 [Alpidem] | POS
CN1Cc2c(N)cccc2C(c2ccccc2)C1 (centres unmarked) [Nomifensine] | POS
CC(C)NNC(=O)c1ccncc1 [Iproniazid] | POS
O=C(c1ccccc1)c1ccc2n1CCC2C(=O)O (centres unmarked) [Ketorolac] | POS

Same assay, conditions: clinical DILI classification used in this study, Supplementary Table 2; ref Chen et al., 2011; Guo et al., 2005; O'Brien et al., 2006; Sakatis et al., 2012; Suzuki et al., 2010; Xu et al., 2008; cited from earlier work

SMILES | Classified as
CCCN(CCC)C(=O)Cc1c(-c2ccc(Cl)cc2)nc2ccc(Cl)cn12 [Alpidem] | POS
CN1Cc2c(N)cccc2C(c2ccccc2)C1 (centres unmarked) [Nomifensine] | POS
CC(C)NNC(=O)c1ccncc1 [Iproniazid] | POS
O=C(c1ccccc1)c1ccc2n1CCC2C(=O)O (centres unmarked) [Ketorolac] | POS

Same assay, conditions: clinical DILI classification, Supplementary Table 1; ref Chen et al., 2011; Guo et al., 2005; O'Brien et al., 2006; Sakatis et al., 2012; Suzuki et al., 2010; Xu et al., 2008; cited from earlier work

SMILES | DILI in vivo
CCCN(CCC)C(=O)Cc1c(-c2ccc(Cl)cc2)nc2ccc(Cl)cn12 [Alpidem] | POS
CN1Cc2c(N)cccc2C(c2ccccc2)C1 (centres unmarked) [Nomifensine] | POS
CC(C)NNC(=O)c1ccncc1 [Iproniazid] | POS
O=C(c1ccccc1)c1ccc2n1CCC2C(=O)O (centres unmarked) [Ketorolac] | POS

Same assay, conditions: clinical DILI classification; ref Xu et al. (2008); cited from earlier work

SMILES | Xu et al. (2008)
CN1Cc2c(N)cccc2C(c2ccccc2)C1 (centres unmarked) [Nomifensine] | Positive
O=C(c1ccccc1)c1ccc2n1CCC2C(=O)O (centres unmarked) [Ketorolac] | Positive

Same assay, conditions: clinical hepatotoxicity classification; ref O'Brien et al. (2003); cited from earlier work

SMILES | O'Brien et al. (2003)
O=C(c1ccccc1)c1ccc2n1CCC2C(=O)O (centres unmarked) [Ketorolac] | Severely

Same assay, conditions: clinical hepatotoxicity classification; ref Sakatis et al. (2012); cited from earlier work

SMILES | Sakatis et al. (2012)
CCCN(CCC)C(=O)Cc1c(-c2ccc(Cl)cc2)nc2ccc(Cl)cn12 [Alpidem] | Hepatotoxic

Same assay, conditions: in vivo; cited from earlier work

SMILES | Classified as | Clinical DILI class (panel heading of Figure 4) | DILI in vivo | Type of DILI | FDA (0-8) | Sakatis et al. (2012) | Xu et al. (2008) | FDA (Severity) | O'Brien et al. (2003) | Suzuki et al. (2010)
CC(C)(C)c1ccc(C(O)CCCN2CCC(C(O)(c3ccccc3)c3ccccc3)CC2)cc1 (centres unmarked) [Terfenadine] | NEG | DILI negative | NEG | Non-hepatotoxic | – | – | – | – | – | –
NNCCc1ccccc1 [Phenelzine] | NEG | DILI negative | NEG | Non-hepatotoxic | 3 | Hepatotoxic | Negative | – | – | –
CC(C)OC(=O)C(C)(C)Oc1ccc(C(=O)c2ccc(Cl)cc2)cc1 [Fenofibrate] | POS | High DILI concern | POS | Hepatocellular injury, Cholestatic injury or Mixed hepatitis | 3 | Hepatotoxic | Positive | less DILI concern | Moderately | 1
OC(Cn1cncn1)(Cn1cncn1)c1ccc(F)cc1F [Fluconazole] | POS | Severe DILI | POS | Hepatocellular injury | 8 | Hepatotoxic | Positive | most DILI concern | – | 1
CC(C)NNC(=O)c1ccncc1 [Iproniazid] | – | – | – | – | – | Hepatotoxic | – | – | – | –
CN(C)/N=N/c1[nH]cnc1C(N)=O [Dacarbazine] | POS | Severe DILI | POS | Hepatocellular injury | 6 | Hepatotoxic | – | most DILI concern | – | –
CCN(CC)Cc1cc(Nc2ccnc3cc(Cl)ccc23)ccc1O [Amodiaquine] | POS | Severe DILI | POS | Hepatocellular injury | – | – | – | – | – | –

Same assay, conditions: in vivo; cited from earlier work

SMILES | Guo et al. (2005) | Clinical DILI classification (Figure 5)
OC(Cn1cncn1)(Cn1cncn1)c1ccc(F)cc1F [Fluconazole] | 3 | –
CN(C)/N=N/c1[nH]cnc1C(N)=O [Dacarbazine] | 3 | –
CCN(CC)Cc1cc(Nc2ccnc3cc(Cl)ccc23)ccc1O [Amodiaquine] | – | DILI positive

Same assay, conditions: reported pattern of liver damage, Supplementary Table 2; ref literature; cited from earlier work

SMILES | Type of DILI
CCCN(CCC)C(=O)Cc1c(-c2ccc(Cl)cc2)nc2ccc(Cl)cn12 [Alpidem] | Hepatocellular injury
CN1Cc2c(N)cccc2C(c2ccccc2)C1 (centres unmarked) [Nomifensine] | Cholestatic injury
CC(C)NNC(=O)c1ccncc1 [Iproniazid] | Hepatocellular injury

Tested on: PHH 2D sandwich cultures
Conditions: PHH 2D sandwich cultures, 100x Cmax; ref Xu 2008; cited from earlier work

SMILES | 2Dsw (Xu 2008) 100x
CC(C)(C)c1ccc(C(O)CCCN2CCC(C(O)(c3ccccc3)c3ccccc3)CC2)cc1 (centres unmarked) [Terfenadine] | Negative
NNCCc1ccccc1 [Phenelzine] | Negative

Tested on: not given
Conditions: ref DrugBank and Prescribers' Digital Reference database; cited from earlier work

SMILES | Extent of hepatic metabolism
CC(C)(C)c1ccc(C(O)CCCN2CCC(C(O)(c3ccccc3)c3ccccc3)CC2)cc1 (centres unmarked) [Terfenadine] | Extensive
NNCCc1ccccc1 [Phenelzine] | Extensive
CC(C)OC(=O)C(C)(C)Oc1ccc(C(=O)c2ccc(Cl)cc2)cc1 [Fenofibrate] | Extensive
CCCN(CCC)C(=O)Cc1c(-c2ccc(Cl)cc2)nc2ccc(Cl)cn12 [Alpidem] | Extensive
CN1Cc2c(N)cccc2C(c2ccccc2)C1 (centres unmarked) [Nomifensine] | Moderate
OC(Cn1cncn1)(Cn1cncn1)c1ccc(F)cc1F [Fluconazole] | Minimal
CC(C)NNC(=O)c1ccncc1 [Iproniazid] | Extensive
O=C(c1ccccc1)c1ccc2n1CCC2C(=O)O (centres unmarked) [Ketorolac] | Moderate
CN(C)/N=N/c1[nH]cnc1C(N)=O [Dacarbazine] | Extensive
CCN(CC)Cc1cc(Nc2ccnc3cc(Cl)ccc23)ccc1O [Amodiaquine] | Extensive

Tested on: not given
Conditions: therapeutic total cmax; ref PMID; cited from earlier work

SMILES | Cmax [nM]
CC(C)(C)c1ccc(C(O)CCCN2CCC(C(O)(c3ccccc3)c3ccccc3)CC2)cc1 (centres unmarked) [Terfenadine] | 4.5
NNCCc1ccccc1 [Phenelzine] | 85
CC(C)OC(=O)C(C)(C)Oc1ccc(C(=O)c2ccc(Cl)cc2)cc1 [Fenofibrate] | 12100
CCCN(CCC)C(=O)Cc1c(-c2ccc(Cl)cc2)nc2ccc(Cl)cn12 [Alpidem] | 670
CN1Cc2c(N)cccc2C(c2ccccc2)C1 (centres unmarked) [Nomifensine] | 5640
OC(Cn1cncn1)(Cn1cncn1)c1ccc(F)cc1F [Fluconazole] | 8820
CC(C)NNC(=O)c1ccncc1 [Iproniazid] | 40
O=C(c1ccccc1)c1ccc2n1CCC2C(=O)O (centres unmarked) [Ketorolac] | 2390
CN(C)/N=N/c1[nH]cnc1C(N)=O [Dacarbazine] | 16600
CCN(CC)Cc1cc(Nc2ccnc3cc(Cl)ccc23)ccc1O [Amodiaquine] | 1910
